Data on 12 compounds can be found in patent US20240294543A1, “CYCLOHEPTA-THIENO-DIAZEPINE DERIVATIVES AS GABA A GAMMA1 PAM” (Hoffmann-La Roche Inc., priority 2021, published 2024).

Read-outs that look alike come from different tables or passages of the source.

The target of assay [1] is human GABAA α1β3γ2 receptor (Homo sapiens (Human), UniProt P14867+P18507). Nature of the assay: Radioligand binding assay, competition for [3H]Flumazenil, γ2-containing GABAA subtypes. The following applies: for γ2/γ1 Selectivity Ratio: Ki α1β3γ2 (nM)/Ki α2β2γ1 (nM); for LogSel: Log[Ki α1β3γ2 (nM)/Ki α2β2γ1 (nM)]. A digest of the protocol:
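Competition against [3H]Flumazenil binding in HEK293F cells transiently expressing human α1β3γ2 receptors, pellets resuspended in mannitol buffer pH 7,2-7,4. Incubated to equilibrium 1 hour at 4° C, filtered and washed with ice-cold 50 mM Tris pH 7.5, bound radioactivity by liquid scintillation counting. Ki values are means of two determinations.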

Assay [2] addresses human GABAA α2β2γ1 receptor (Homo sapiens (Human), UniProt P47869+Q8N1C3). The assay is described as follows: Radioligand binding assay, competition for [3H]RO7239181, γ1-containing GABAA subtypes. The settings on record: Ki h-GABAA α2β2γ1, membranes of HEK293F cells, [3H]RO7239181 20-30 nM.
For assay [3], the target named is human GABAA α5β2γ1 receptor (Homo sapiens (Human), UniProt P31644+Q8N1C3). The assay is described as above.
Where [4] appears, read: HEK293F cells, [3H]Flumazenil 1 nM, Table 1, read-out: Ki h-GABAA α1β3γ2.

Turning to `CCOC1CN(C(=O)c2nc3n(n2)-c2sc4c(c2C(c2c(F)cccc2F)=N[C@H]3C)COCCO4)C1` [Example 31, [(7S)-9-(2,6-Difluorophenyl)-7-methyl-13,16-dioxa-18-thia-2,3,5,8-tetrazatetracyclo[8.8.0.02,6.011,17]octadeca-1(10),3,5,8,11(17)-pentaen-4-yl]-(3-ethoxyazetidin-1-yl)methanone], the Ki (usually a dissociation constant, usually derived from enzyme kinetics or from competition with a known ligand) in assay [1] (setting [4]) came out at 4540 nM; in assay [2] (Table 1), 5.5 nM; in assay [2] (Table 2), 5.6 nM; in assay [3], 2.4 nM. In addition, the “γ2/γ1 Selectivity Ratio” value in assay [1] (Table 1) was found to be 818.0. Moreover, the LogSel in assay [1] (Table 1) was found to be 2.91.

For the compound `Cc1nnc2n1-c1sc3c(c1C(c1c(F)cccc1F)=N[C@H]2C)OCCCC3` [Example 33, (7S)-9-(2,6-difluorophenyl)-3,7-dimethyl-12-oxa-18-thia-2,4,5,8-tetrazatetracyclo[8.8.0.02,6.011,17]octadeca-1(10),3,5,8,11(17)-pentaene], the Ki in assay [1] stood at 3720 nM; in assay [2] (Table 1) it was 55.9 nM; in assay [2] (Table 2) it was 55.9 nM; in assay [3], 21.8 nM. Besides, the “γ2/γ1 Selectivity Ratio” value in assay [1] (Table 1) turned out to be 66.5. The LogSel in assay [1] (Table 1) amounted to 1.82.

As to `Cc1nnc2n1-c1sc3c(c1C(c1c(F)cccc1Cl)=N[C@H]2C)COCCO3` [Example 35, (7S)-9-(2-chloro-6-fluoro-phenyl)-3,7-dimethyl-13,16-dioxa-18-thia-2,4,5,8-tetrazatetracyclo[8.8.0.02,6.011,17]octadeca-1(10),3,5,8,11(17)-pentaene], the Ki came to 3940 nM in assay [1], 18.8 nM in assay [2] (Table 1), 18.8 nM in assay [2] (Table 2) and 5.21 nM in assay [3]. The “γ2/γ1 Selectivity Ratio” value in assay [1] (Table 1) is reported as 209.5. This compound also came in with a LogSel in assay [1] (Table 1) of 2.32.

`C[C@@H]1N=C(c2c(F)cccc2F)c2c(sc3c2COCCO3)-n2nc(C(=O)NC3CC3)nc21` [Example 36]: the Ki in assay [1] (setting [4]) is 4080 nM; in assay [2] (Table 1), 56.3 nM; in assay [2] (Table 2) it was 56.3 nM; in assay [3], 3.66 nM. Moreover, the “γ2/γ1 Selectivity Ratio” value in assay [1] (Table 1) is on record as 72.6. Also, in assay [1] (Table 1), the LogSel was found to be 1.86.

Take `CCNC(=O)c1nc2n(n1)-c1sc3c(c1C(c1c(F)cccc1F)=N[C@H]2C)COCCO3` [Example 37, (7S)-9-(2,6-difluorophenyl)-N-ethyl-7-methyl-13,16-dioxa-18-thia-2,3,5,8-tetrazatetracyclo[8.8.0.02,6.011,17]octadeca-1(10),3,5,8,11(17)-pentaene-4-carboxamide]: the Ki in assay [1] (setting [4]) worked out at 4080 nM; in assay [2] (Table 1) it was 33.7 nM; in assay [2] (Table 2), 33.7 nM; in assay [3], 3.21 nM. For the same compound, in assay [1] (Table 1), the “γ2/γ1 Selectivity Ratio” value came out at 121.1. The compound also registered a LogSel in assay [1] (Table 1) of 2.08.

On to `Cc1nc2n(n1)-c1sc3c(c1C(c1c(F)cccc1F)=N[C@H]2C)COC[C@H](C)O3` [Example 39, (7S,15S)-9-(2,6-difluorophenyl)-4,7,15-trimethyl-13,16-dioxa-18-thia-2,3,5,8-tetrazatetracyclo[8.8.0.02,6.011,17]octadeca-1(10),3,5,8,11(17)-pentaene], for which the Ki in assay [1] was 9120 nM; in assay [2] (Table 1), 57.8 nM; in assay [2] (Table 2), 57.8 nM; in assay [3], 3.47 nM. In addition, the “γ2/γ1 Selectivity Ratio” value in assay [1] (Table 1) came to 157.6. Further, the LogSel in assay [1] (Table 1) came out at 2.20.

Turning to `C[C@@H]1N=C(c2c(F)cccc2F)c2c(sc3c2COC[C@H](C)O3)-n2nc(C(=O)N3CC(F)C3)nc21` [Example 40, [(7S,15S)-9-(2,6-difluorophenyl)-7,15-dimethyl-13,16-dioxa-18-thia-2,3,5,8-tetrazatetracyclo[8.8.0.02,6.011,17]octadeca-1(10),3,5,8,11(17)-pentaen-4-yl]-(3-fluoroazetidin-1-yl)methanone], the Ki in assay [1] (setting [4]) was determined as 11600 nM; in assay [2] (Table 1), 20.5 nM; in assay [2] (Table 2), 20.5 nM; in assay [3], 2.65 nM. The “γ2/γ1 Selectivity Ratio” value in assay [1] (Table 1) is on record as 568.5. Also, the LogSel in assay [1] (Table 1) is 2.75.

In the case of `C[C@@H]1N=C(c2c(F)cccc2F)c2c(sc3c2COC[C@H](C)O3)-n2nc(C(=O)N3CC(OC(C)(C)C)C3)nc21` [Example 41, (3-tert-butoxyazetidin-1-yl)-[(7S,15S)-9-(2,6-difluorophenyl)-7,15-dimethyl-13,16-dioxa-18-thia-2,3,5,8-tetrazatetracyclo[8.8.0.02,6.011,17]octadeca-1(10),3,5,8,11(17)-pentaen-4-yl]methanone], the Ki turned out to be 12300 nM in assay [1] (setting [4]), 65.1 nM in assay [2] (Table 1), 65.1 nM in assay [2] (Table 2) and 6.2 nM in assay [3]. Further, the “γ2/γ1 Selectivity Ratio” value in assay [1] (Table 1) is 188.2. Also, in assay [1] (Table 1), the LogSel was 2.27.

For `CCc1nnc2n1-c1sc3c(c1C(c1c(F)cccc1F)=N[C@H]2C)COCCO3` [Example 42, (7S)-9-(2,6-difluorophenyl)-3-ethyl-7-methyl-13,16-dioxa-18-thia-2,4,5,8-tetrazatetracyclo[8.8.0.02,6.011,17]octadeca-1(10),3,5,8,11(17)-pentaene], the Ki in assay [1] was 4270 nM; in assay [2] (Table 1), 31.7 nM; in assay [2] (Table 2), 31.7 nM; in assay [3], 2.9 nM. In addition, the “γ2/γ1 Selectivity Ratio” value in assay [1] (Table 1) came out at 134.9. In assay [1] (Table 1), this compound returned a LogSel of 2.13.

As for `C[C@@H]1N=C(c2c(F)cccc2F)c2c(sc3c2COCCO3)-n2c(C3CC3)nnc21` [Example 43, (7S)-3-cyclopropyl-9-(2,6-difluorophenyl)-7-methyl-13,16-dioxa-18-thia-2,4,5,8-tetrazatetracyclo[8.8.0.02,6.011,17]octadeca-1(10),3,5,8,11(17)-pentaene], the Ki is 5360 nM in assay [1], 23.6 nM in assay [2] (Table 1), 23.6 nM in assay [2] (Table 2) and 4.45 nM in assay [3]. In assay [1] (Table 1), the “γ2/γ1 Selectivity Ratio” value turned out to be 227.2. Besides, the LogSel in assay [1] (Table 1) was 2.36.

Regarding `CC(C)c1nnc2n1-c1sc3c(c1C(c1c(F)cccc1F)=N[C@H]2C)COCCO3` [Example 44, (7S)-9-(2,6-difluorophenyl)-3-isopropyl-7-methyl-13,16-dioxa-18-thia-2,4,5,8-tetrazatetracyclo[8.8.0.02,6.011,17]octadeca-1(10),3,5,8,11(17)-pentaene], the Ki in assay [1] was found to be 6390 nM; in assay [2] (Table 1), 29 nM; in assay [2] (Table 2), 29 nM; in assay [3], 4.87 nM. The “γ2/γ1 Selectivity Ratio” value in assay [1] (Table 1) is reported as 220.4. Besides, the LogSel in assay [1] (Table 1) was found to be 2.34.

For the compound `C[C@@H]1N=C(c2c(F)cccc2F)c2c(sc3c2COCCO3)-n2nc(C(=O)NCC(C)(C)O)nc21` [Example 45, (7S)-9-(2,6-difluorophenyl)-N-(2-hydroxy-2-methyl-propyl)-7-methyl-13,16-dioxa-18-thia-2,3,5,8-tetrazatetracyclo[8.8.0.02,6.011,17]octadeca-1(10),3,5,8,11(17)-pentaene-4-carboxamide], the Ki in assay [1] (setting [4]) was 3150 nM; in assay [2] (Table 1) it was 13.6 nM; in assay [2] (Table 2), 13.6 nM; in assay [3] it was 3.25 nM. Further, the “γ2/γ1 Selectivity Ratio” value in assay [1] (Table 1) is reported as 232.1. The compound also came in with a LogSel in assay [1] (Table 1) of 2.37.
